Consider six compounds from US20100311714A1, “1H-IMIDAZO[4,5-c]QUINOLINONE COMPOUNDS” (priority 2009, published 2010).

Holding throughout (type): biochemical
In experiment [1] the target is T1, PI3K delta (Homo sapiens, UniProt O00329).
T1 construct: for the full-length p110-d subunit are generated and fused by overlapping PCR; His tag (C); made in house; host or cells: baculovirus BV1060; Tn5 (Trichoplusia ni) or TiniPro insect cells
Put plainly: PI3K delta kinase assay (Kinase-Glo luminescence). As to conditions: read-out: EPK_PI3Kdelta/IC50. Summed up: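 Kinase-Glo ATP-depletion luminescence using 10 nM p85(iSH2)-linker-p110δ full-length His-tag construct from insect cells, with 1 μM ATP and 10 μg/mL phosphatidylinositol in 10 mM Tris pH 7.5, 3 mM MgCl2, 50 mM NaCl, 0.05% CHAPS, 1 mM DTT. 60 min room temperature; IC50 from 4-parameter logistic fit over 8 concentrations.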
(Kinase-Glo measures the ATP left after a reaction by luminescence.)

For experiment [2], the target named is T2, PI3K beta (Homo sapiens, UniProt P42338).
T2 construct: for the full-length p110-b subunit are generated and fused by overlapping PCR; His tag (C); made in house; host or cells: baculovirus BV949; Tn5 (Trichoplusia ni) or TiniPro insect cells
The experiment can be described thus: PI3K beta kinase assay (Kinase-Glo luminescence). As to conditions: read-out: EPK_PI3Kbeta/IC50. In a few lines: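 PI3Kβ construct BV949 (p85 iSH2–p110β full-length, C-His), 25 nM, reacted with 1 μM ATP and 10 μg/mL phosphatidylinositol in Tris pH 7.5, MgCl2, NaCl, CHAPS, DTT buffer, 60 min at room temperature. Remaining ATP by Kinase-Glo luminescence; IC50 from 4-parameter logistic fit of 8 concentrations.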

For experiment [3], the target named is T3, PI3K alfa (Homo sapiens, UniProt P42336).
T3 construct: His tag (C); made in house; host or cells: baculovirus BV1075; Tn5 (Trichoplusia ni) or TiniPro insect cells
Put plainly: PI3K alpha kinase assay (Kinase-Glo luminescence). Conditions: read-out: EPK_PI3Kalfa/IC50. Summed up:
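Kinase-Glo luminescence read of ATP remaining after PI3Kα (10 nM) phosphorylates 10 μg/mL bovine liver phosphatidylinositol with 1 μM ATP, pH 7.5 TRIS, 3 mM MgCl2, 0.05% CHAPS; 60 min at room temperature. IC50 from 4-parameter logistic fit over 8 concentrations.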

T2 sequence (P42338 with tags, fused parts or gaps limits assumed): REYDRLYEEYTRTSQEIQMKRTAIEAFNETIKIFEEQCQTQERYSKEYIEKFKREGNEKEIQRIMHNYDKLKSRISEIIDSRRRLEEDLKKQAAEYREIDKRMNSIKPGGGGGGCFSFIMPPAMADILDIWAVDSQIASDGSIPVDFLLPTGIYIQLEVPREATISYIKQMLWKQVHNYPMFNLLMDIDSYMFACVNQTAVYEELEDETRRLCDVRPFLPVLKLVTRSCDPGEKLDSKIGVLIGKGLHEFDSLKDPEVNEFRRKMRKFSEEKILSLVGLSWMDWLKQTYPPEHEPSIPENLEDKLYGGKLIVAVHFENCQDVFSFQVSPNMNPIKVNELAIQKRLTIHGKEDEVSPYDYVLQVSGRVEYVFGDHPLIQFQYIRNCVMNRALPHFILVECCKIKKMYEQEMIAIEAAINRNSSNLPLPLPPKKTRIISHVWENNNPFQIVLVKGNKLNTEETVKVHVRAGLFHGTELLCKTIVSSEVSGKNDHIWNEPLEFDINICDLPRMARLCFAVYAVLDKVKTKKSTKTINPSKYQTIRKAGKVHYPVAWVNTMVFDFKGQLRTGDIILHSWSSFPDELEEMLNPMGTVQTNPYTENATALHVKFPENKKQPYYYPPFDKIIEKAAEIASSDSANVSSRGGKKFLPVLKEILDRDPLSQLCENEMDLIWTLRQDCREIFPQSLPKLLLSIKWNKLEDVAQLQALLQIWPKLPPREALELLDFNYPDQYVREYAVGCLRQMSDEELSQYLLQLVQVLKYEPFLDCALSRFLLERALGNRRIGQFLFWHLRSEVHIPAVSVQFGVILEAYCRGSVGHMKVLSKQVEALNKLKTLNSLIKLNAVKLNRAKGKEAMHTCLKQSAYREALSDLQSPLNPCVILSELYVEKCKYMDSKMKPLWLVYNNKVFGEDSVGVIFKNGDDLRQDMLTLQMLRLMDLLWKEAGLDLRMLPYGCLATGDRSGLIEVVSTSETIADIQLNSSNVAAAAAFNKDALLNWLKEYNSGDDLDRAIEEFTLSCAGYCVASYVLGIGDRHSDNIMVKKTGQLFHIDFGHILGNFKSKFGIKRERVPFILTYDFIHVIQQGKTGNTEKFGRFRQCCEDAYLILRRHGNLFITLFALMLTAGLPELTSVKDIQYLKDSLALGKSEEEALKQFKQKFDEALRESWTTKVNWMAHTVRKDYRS
T3 sequence (P42336 with tags, fused parts or gaps limits assumed): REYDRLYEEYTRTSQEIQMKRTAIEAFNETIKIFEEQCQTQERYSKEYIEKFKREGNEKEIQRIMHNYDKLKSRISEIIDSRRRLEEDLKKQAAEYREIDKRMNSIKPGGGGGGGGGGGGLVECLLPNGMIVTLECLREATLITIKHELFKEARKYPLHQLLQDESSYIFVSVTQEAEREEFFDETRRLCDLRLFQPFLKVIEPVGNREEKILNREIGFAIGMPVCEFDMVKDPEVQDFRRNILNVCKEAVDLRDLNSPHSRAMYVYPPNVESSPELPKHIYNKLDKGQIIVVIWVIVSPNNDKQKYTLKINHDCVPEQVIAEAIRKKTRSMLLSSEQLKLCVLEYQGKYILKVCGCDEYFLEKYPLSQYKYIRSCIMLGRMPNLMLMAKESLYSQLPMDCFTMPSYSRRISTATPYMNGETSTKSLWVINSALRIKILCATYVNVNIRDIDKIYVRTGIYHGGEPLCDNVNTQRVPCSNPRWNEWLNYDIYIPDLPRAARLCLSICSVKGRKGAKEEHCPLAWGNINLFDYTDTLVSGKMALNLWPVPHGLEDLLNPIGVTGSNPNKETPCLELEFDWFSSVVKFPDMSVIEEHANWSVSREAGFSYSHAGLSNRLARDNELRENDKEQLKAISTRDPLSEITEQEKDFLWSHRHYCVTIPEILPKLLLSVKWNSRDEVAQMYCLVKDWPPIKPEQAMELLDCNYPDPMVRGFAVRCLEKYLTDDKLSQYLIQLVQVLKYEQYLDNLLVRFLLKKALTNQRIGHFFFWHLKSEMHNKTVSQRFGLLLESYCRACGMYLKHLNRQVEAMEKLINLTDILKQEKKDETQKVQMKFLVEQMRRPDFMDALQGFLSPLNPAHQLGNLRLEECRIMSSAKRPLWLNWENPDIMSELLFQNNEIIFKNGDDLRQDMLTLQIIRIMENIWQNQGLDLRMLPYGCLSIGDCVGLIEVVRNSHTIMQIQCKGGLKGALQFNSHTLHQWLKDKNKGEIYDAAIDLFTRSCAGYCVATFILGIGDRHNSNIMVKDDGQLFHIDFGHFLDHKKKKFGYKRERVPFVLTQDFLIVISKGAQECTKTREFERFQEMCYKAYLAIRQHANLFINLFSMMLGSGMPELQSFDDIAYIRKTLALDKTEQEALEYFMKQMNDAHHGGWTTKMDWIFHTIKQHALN
T1 sequence (O00329 with tags, fused parts or gaps limits assumed): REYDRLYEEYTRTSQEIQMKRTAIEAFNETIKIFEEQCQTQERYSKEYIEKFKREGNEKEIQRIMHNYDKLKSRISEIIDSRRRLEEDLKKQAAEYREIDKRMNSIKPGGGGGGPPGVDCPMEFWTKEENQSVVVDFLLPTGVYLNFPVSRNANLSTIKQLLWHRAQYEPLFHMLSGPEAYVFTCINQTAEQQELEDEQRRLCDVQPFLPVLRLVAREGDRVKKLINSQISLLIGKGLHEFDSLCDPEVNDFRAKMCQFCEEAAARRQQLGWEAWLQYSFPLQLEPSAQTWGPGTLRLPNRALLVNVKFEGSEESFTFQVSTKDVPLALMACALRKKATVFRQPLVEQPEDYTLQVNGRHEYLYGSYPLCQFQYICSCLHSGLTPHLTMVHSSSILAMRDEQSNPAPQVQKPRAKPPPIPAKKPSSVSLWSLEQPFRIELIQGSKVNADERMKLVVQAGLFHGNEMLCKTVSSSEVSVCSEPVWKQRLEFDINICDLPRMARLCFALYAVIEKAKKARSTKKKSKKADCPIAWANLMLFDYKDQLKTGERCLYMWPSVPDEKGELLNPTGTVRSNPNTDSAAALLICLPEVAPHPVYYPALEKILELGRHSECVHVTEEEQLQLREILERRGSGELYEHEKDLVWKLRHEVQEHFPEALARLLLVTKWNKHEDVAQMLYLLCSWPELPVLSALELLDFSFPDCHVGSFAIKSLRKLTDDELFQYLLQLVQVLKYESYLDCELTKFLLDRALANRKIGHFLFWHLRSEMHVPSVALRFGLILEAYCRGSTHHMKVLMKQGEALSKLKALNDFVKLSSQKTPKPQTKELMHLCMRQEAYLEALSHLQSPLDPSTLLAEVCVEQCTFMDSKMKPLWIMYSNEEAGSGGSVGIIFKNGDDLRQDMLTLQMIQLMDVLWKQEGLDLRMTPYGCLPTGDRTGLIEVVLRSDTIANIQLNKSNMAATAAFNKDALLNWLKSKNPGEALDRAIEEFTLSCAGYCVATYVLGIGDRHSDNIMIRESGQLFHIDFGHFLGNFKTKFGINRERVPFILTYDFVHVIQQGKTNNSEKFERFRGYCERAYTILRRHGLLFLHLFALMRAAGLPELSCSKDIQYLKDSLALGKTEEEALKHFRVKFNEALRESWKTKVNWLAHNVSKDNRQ

For `CCNc1cc(-c2ccc3ncc4c(c3c2)n(-c2ccc(N3CC(F)(F)C3)nc2C)c(=O)n4C)cnc1CO` [Example 24.3, 1-[6-(3,3-Difluoro-azetidin-1-yl)-2-methyl-pyridin-3-yl]-8-(5-ethylamino-6-hydroxymethyl-pyridin-3-yl)-3-methyl-1,3-dihydro-imidazo[4,5-c]quinolin-2-one], the IC50 was determined as 0.055 µM in experiment [1], 0.027 µM in experiment [2] and 0.011 µM in experiment [3].
Taken in the same sequence, the figures for `CNc1ccc(-c2ccc3ncc4c(c3c2)n(-c2ccc(N3CCCC3)nc2C)c(=O)n4C)cn1` [Example 25.1, 3-Methyl-8-(6-methylamino-pyridin-3-yl)-1-(2-methyl-6-pyrrolidin-1-yl-pyridin-3-yl)-1,3-dihydro-imidazo[4,5-c]quinolin-2-one] were 0.024 µM, 1.52 µM and 0.035 µM.
For the compound `Cc1nc(N2CCC(O)C2)ccc1-n1c(=O)n(C)c2cnc3ccc(-c4cncc(OC(C)C)c4)cc3c21` (stereo not drawn) [Example 27.1, 1-[6-(3-Hydroxy-pyrrolidin-1-yl)-2-methyl-pyridin-3-yl]-8-(5-isopropoxy-pyridin-3-yl)-3-methyl-1,3-dihydro-imidazo[4,5-c]quinolin-2-one], the values for the IC50 in experiment [1], in experiment [2] and in experiment [3] were 0.009 µM, 0.013 µM and 0.021 µM, respectively.
Turning to `Cc1nc(C(C)(C)O)ccc1-n1c(=O)n(C)c2cnc3ccc(-c4cncc(OC(C)C)c4)cc3c21` [Example 31.9, 1-[6-(1-Hydroxy-1-methyl-ethyl)-2-methyl-pyridin-3-yl]-8-(5-isopropoxy-pyridin-3-yl)-3-methyl-1,3-dihydro-imidazo[4,5-c]quinolin-2-one], the values for the IC50 in experiment [1], in experiment [2] and in experiment [3] were 0.014 µM, 0.062 µM and 0.051 µM, respectively.
Taken in the same sequence, the figures for `CNc1cc(-c2ccc3ncc4c(c3c2)n(-c2ccc(C(F)(F)F)nc2C)c(=O)n4C)cnc1CO` [Example 33.2, 8-(6-Hydroxymethyl-5-methylamino-pyridin-3-yl)-3-methyl-1-(2-methyl-6-trifluoromethyl-pyridin-3-yl)-1,3-dihydro-imidazo[4,5-c]quinolin-2-one] were 0.01 µM, 0.038 µM and 0.015 µM.
Taken in the same sequence, the figures for `Cc1nc(N2CC(F)(F)C(F)(F)C2)ccc1-n1c(=O)n(C)c2cnc3ccc(-c4cncc(C(C)(C)O)c4)cc3c21` [Example 35.1, 8-[5-(1-Hydroxy-1-methyl-ethyl)-pyridin-3-yl]-3-methyl-1-[2-methyl-6-(3,3,4,4-tetrafluoro-pyrrolidin-1-yl)-pyridin-3-yl]-1,3-dihydro-imidazo[4,5-c]quinolin-2-one] were 0.005 µM, 0.034 µM and 0.007 µM.
